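Exposure lasted 48 hours, with cells grown in 96-well plates and compounds tested at five concentrations. GI50 = concentration required for 50% inhibition of growth.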 The source made the active and inactive calls. Cut-off read from the data, not from the text of the source: active = GI50 up to about 1.1 µM and inactive = higher.

Among the test systems are SF-295; SN12C; MOLT-4; UACC-62; Malme-3M; U-251; UO-31; A549; MDA-MB-231; COLO 205; SK-OV-3; MCF7; SW-620; TK-10; T47D; SK-MEL-28; A498; MDA-MB-435; DU-145; HOP-92.
What all share (assay): inhibition of tumour cell growth, NCI panel, 48 h

For `CCOc1ccc2nc3nc(O)nc(C)c3c(NCCCN(CC)CC)c2c1`, the GI50 in the assay on SF-295, in the assay with SN12C, in the assay on MOLT-4, in the assay with UACC-62, in the assay with Malme-3M and with U-251 was > 100 µM (inactive) in each case. For the same compound, the GI50 in the assay on UO-31, in the assay on A549, with MDA-MB-231, in the assay on COLO 205, with SK-OV-3 and with MCF7 was > 100 µM (inactive) each time. Further, the GI50 with SW-620, with TK-10, in the assay on T47D, in the assay on SK-MEL-28, in the assay on A498 and in the assay with MDA-MB-435 was > 100 µM (inactive) throughout. In addition, the GI50 in the assay with DU-145 and with HOP-92 was > 100 µM (inactive) in each case.

Turning to `COc1ccc2c(c1)CN([C@@H](C)[C@H]1CC[C@H]3[C@@H]4CC[C@H]5C[C@@H](O)CC[C@]5(C)[C@H]4CC[C@]13C)CO2`, the GI50 was 1.45 µM (inactive) in the assay with SF-295; 8.57 µM (inactive) with SN12C; 1.03 µM (active) with MOLT-4; 2 µM (inactive) in the assay with UACC-62; 1.53 µM (inactive) in the assay with Malme-3M; 1.62 µM (inactive) in the assay with U-251. Moreover, the GI50 in the assay on UO-31 is 1.81 µM (inactive); in the assay with A549, 1.76 µM (inactive); in the assay with MDA-MB-231, 2.42 µM (inactive); in the assay on COLO 205 it was 2 µM (inactive); with SK-OV-3, 1.7 µM (inactive); with MCF7, 3.7 µM (inactive). Also, the GI50 in the assay on SW-620 is 2.92 µM (inactive); with TK-10, 2.79 µM (inactive); in the assay with T47D, 3.56 µM (inactive); in the assay with SK-MEL-28, 2.48 µM (inactive); in the assay with A498, 1.88 µM (inactive); with MDA-MB-435, 1.75 µM (inactive). Also, the GI50 in the assay on DU-145 was 4.68 µM (inactive); in the assay on HOP-92, 1.74 µM (inactive).

The record behind these values is ChEMBL document CHEMBL1201862, “PubChem BioAssay data set” (2004).
